Results reported in ChEMBL document CHEMBL5725267, “Enhancer of zeste homolog 2 inhibitors” (2016).

Assay: Scintillation Proximity Assay (SPA): Protocol 2: Compounds contained herein were evaluated for their ability to inhibit the methyltransferase activity of EZH2 within the PRC2 complex. Human PRC2 complex was prepared by co-expressing each of the 5 member proteins (FLAG-EZH2, EED, SUZ12, RbAp48, AEBP2) in Sf9 cells followed by co-purification. Enzyme activity was measured in a scintillation proximity assay (SPA) where a tritiated methyl group is transferred from 3H-SAM to a lysine residue on a biotinylated, unmethylated peptide substrate derived from histone H3. The peptides were captured on streptavidin-coated SPA beads and the resulting signal was read on a ViewLux plate reader.Part A. Compound Preparation 4. Prepare 10 mM stock of compounds from solid in 100% DMSO. 5. Set up an 11-point serial dilution (1:4 dilution, top concentration 10 mM) in 100% DMSO for each test compound in a 384 well plate leaving columns 6 and 18 for DMSO controls. 6. Dispense 10 nL of compound from the dilution plate into reaction plates (Corning, 384-well polystyrene NBS, Cat#3673). Percent inhibition was calculated relative to the DMSO control for each compound concentration and the resulting values were fit using standard IC50 fitting parameters within the ABASE data fitting software package.
Assay type: biochemical

Row | IC50 [nM] | SMILES
1 | 1000 | C/C=C(\CCN1CCOCC1)c1scc(C(=O)NCc2c(C)cc(C)[nH]c2=O)c1C
2 | 200 | C/C=C(\CCCN1CCC(N(C)C)CC1)c1scc(C(=O)NCc2c(C)cc(C)[nH]c2=O)c1C
3 | 100 | C/C=C(/c1scc(C(=O)NCc2c(C)cc(C)[nH]c2=O)c1C)[C@H]1CC[C@H](NC(=O)OC(C)(C)C)CC1
4 | 251 | C/C=C(\CCCN1CCN(C)CC1)c1scc(C(=O)NCc2c(C)cc(C)[nH]c2=O)c1C
